Experimental data reported in the supplement of paper PMC11061612.

Tests used:
5637 (Bladder Carcinoma) = assay: Bliss excess, mean over the matrix (fraction); higher = more synergy
Method in brief: (§1)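 After 24 hours at 37°C and 5% CO2 in 1536-well plates, cells in DMEM/F12 or RPMI plus 10% FBS received two-drug dose matrices for 72 hours. Viability came from CellTiter-Glo 2.0 luminescence and was scaled as inhibition, anchored at 0 by vehicle wells and at 1 by blank wells. Combination Emax is taken as the second-highest inhibition in the matrix, and Bliss excess as the observed combination effect less EA + EB − EA·EB, with EA and EB the single-agent effects.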

A101D (Melanoma) = assay: as above
Method in brief: as §1

[1] = test system: CESS (Acute Myeloid Leukemia); assay: as above
Method in brief: as §1

COLO-792 (Melanoma) = assay: as above
Method in brief: as §1

[2] = test system: DMS-53 (Small Cell Lung Carcinoma); assay: as above
Method in brief: as §1

[3] = test system: DU-4475 (Breast Carcinoma); assay: as above
Method in brief: as §1

[4] = test system: EPLC-272H (Other Solid Carcinomas); assay: as above
Method in brief: as §1

[5] = test system: ESO26 (Esophageal Adenocarcinoma); assay: as above
Method in brief: as §1

[6] = test system: G-402 (Other Solid Carcinomas); assay: as above
Method in brief: as §1

[7] = test system: GA-10 (Burkitt's Lymphoma); assay: as above
Method in brief: as §1

[8] = test system: GCT (Other Solid Carcinomas); assay: as above
Method in brief: as §1

[9] = test system: HCC1428 (Breast Carcinoma); assay: as above
Method in brief: as §1

[10] = test system: HT55 (Colorectal Carcinoma); assay: as above
Method in brief: as §1

[11] = test system: JVM-2 (B-Cell Non-Hodgkin's Lymphoma); assay: as above
Method in brief: as §1

KP-N-YN (Neuroblastoma) = assay: as above
Method in brief: as §1

[12] = test system: KYSE-140 (Esophageal Squamous Cell Carcinoma); assay: as above
Method in brief: as §1

NB13 (Neuroblastoma) = assay: as above
Method in brief: as §1

RH-41 (Rhabdomyosarcoma) = assay: as above
Method in brief: as §1

[13] = test system: huH-1 (Hepatocellular Carcinoma); assay: as above
Method in brief: as §1

[14] = test system: A253 (Head and Neck Carcinoma); assay: combination Emax (second highest fraction inhibited in the dose matrix, 72 h); higher = more inhibition; extreme values may be limits of the assay
Method in brief: as §1
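For Bliss excess, mean over the matrix in this document: after 72 h of two-drug dosing.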

SMILES	Bliss excess (5637 (Bladder Carcinoma))	Bliss excess (A101D (Melanoma))	Bliss excess [1]	Bliss excess (COLO-792 (Melanoma))	Bliss excess [2]	Bliss excess [3]	Bliss excess [4]	Bliss excess [5]	Bliss excess [6]	Bliss excess [7]	Bliss excess [8]	Bliss excess [9]	Bliss excess [10]	Bliss excess [11]	Bliss excess (KP-N-YN (Neuroblastoma))	Bliss excess [12]	Bliss excess (NB13 (Neuroblastoma))	Bliss excess (RH-41 (Rhabdomyosarcoma))	Bliss excess [13]	combination Emax [14]
C[C@@H](c1ccc2nccn2c1)n1nnc2ncc(-c3cnn(C)c3)nc21 [Savolitinib] + CC1(C)CCC(CN2CCN(c3ccc(C(=O)NS(=O)(=O)c4ccc(NCC5CCOCC5)c([N+](=O)[O-])c4)c(Oc4cnc5[nH]ccc5c4)c3)CC2)=C(c2ccc(Cl)cc2)C1 [Venetoclax] (first compound max 1 µM, 7x7, partner max 1 µM)	-0.0523	-0.0598	-0.0517	-0.0601	-0.0446	-0.0533	-0.0604	-0.0547	-0.067	-0.0485	-0.0727	-0.0219	-0.0562	-0.0472	-0.0927	-0.0257	-0.073	-0.0483	-0.0804	0.092
CN(CCO)CC[C@H](CSc1ccccc1)Nc1ccc(S(=O)(=O)NC(=O)c2ccc(N3CCC([C@@H](O)c4ccccc4-c4ccc(Cl)cc4)CC3)cc2)cc1S(=O)(=O)C(F)(F)F [AZD4320] + Nc1ccn([C@@H]2O[C@H](CO)[C@@H](O)C2(F)F)c(=O)n1 [Gemcitabine] (first compound max 1 µM, 7x7, partner max 0.3 µM)	–	–	–	–	–	–	–	–	–	–	–	–	–	–	–	–	0.0074	–	–	–
CN(CCO)CC[C@H](CSc1ccccc1)Nc1ccc(S(=O)(=O)NC(=O)c2ccc(N3CCC([C@@H](O)c4ccccc4-c4ccc(Cl)cc4)CC3)cc2)cc1S(=O)(=O)C(F)(F)F [AZD4320] + Cc1cc2ncnn2cc1Nc1ncc2c(n1)n(C1CCOCC1)c(=O)n2C [AZD7648] (first compound max 1 µM, 7x7, partner max 10 µM)	-0.0359	-0.0275	-0.0106	0.0951	0.0475	0.0627	-0.0318	-0.0208	-0.0144	-0.0669	-0.0504	0.025	-0.0404	-0.0111	-0.0238	-0.0866	-0.0223	0.0309	-0.0586	0.149
Cc1cc2ncnn2cc1Nc1ncc2c(n1)n(C1CCOCC1)c(=O)n2C [AZD7648] + CCN(CCO)CCCOc1ccc2c(Nc3cc(CC(=O)Nc4cccc(F)c4)[nH]n3)ncnc2c1 [AZD2811] (first compound max 10 µM, 7x7, partner max 1 µM)	0.0149	-0.0404	0.0195	-0.0769	-0.0061	0.0035	0.0143	-0.0299	0.0421	0.112	0.0625	0.0436	-0.0003	0.0382	0.0461	0.033	0.056	0.0902	0.0008	0.316
CN(CCO)CC[C@H](CSc1ccccc1)Nc1ccc(S(=O)(=O)NC(=O)c2ccc(N3CCC([C@@H](O)c4ccccc4-c4ccc(Cl)cc4)CC3)cc2)cc1S(=O)(=O)C(F)(F)F [AZD4320] + C[C@@H](Nc1cc(F)cc(F)c1)c1cc(C(=O)N(C)C)cc2c(=O)cc(N3CCOCC3)oc12 [AZD8186] (first compound max 1 µM, 7x7, partner max 3 µM)	-0.0028	0.0831	-0.0209	0.0763	0.0138	0.0131	0.0633	0.0217	0.0818	0.0166	0.0052	0.0149	-0.0003	0.0133	-0.0097	-0.0136	0.0205	0.0706	-0.0461	0.437
CN(CCO)CC[C@H](CSc1ccccc1)Nc1ccc(S(=O)(=O)NC(=O)c2ccc(N3CCC([C@@H](O)c4ccccc4-c4ccc(Cl)cc4)CC3)cc2)cc1S(=O)(=O)C(F)(F)F [AZD4320] + CC(=O)O[C@H]1C(=O)[C@@]2(C)[C@H]([C@H](OC(=O)c3ccccc3)[C@]3(O)C[C@H](OC(=O)[C@H](O)[C@@H](NC(=O)c4ccccc4)c4ccccc4)C(C)=C1C3(C)C)[C@]1(OC(C)=O)CO[C@@H]1C[C@@H]2O [Paclitaxel] (first compound max 1 µM, 7x7, partner max 3 µM)	–	–	–	–	–	–	–	–	–	–	–	–	–	–	0.0826	–	–	–	–	–
Cc1cc2ncnn2cc1Nc1ncc2c(n1)n(C1CCOCC1)c(=O)n2C [AZD7648] + CN(C)CCCOc1ccc(-c2ccc3ncc4c(c3c2)n(C2CCOCC2)c(=O)n4C)cn1 [AZD0156] (first compound max 10 µM, 7x7, partner max 1 µM)	-0.0004	-0.0016	-0.0013	0.036	-0.0087	-0.0209	-0.0251	-0.031	-0.0271	-0.0067	0.0042	-0.0052	0.0035	-0.0297	0.0088	-0.0325	-0.0173	0.0197	0.0674	0.244
Cc1cc2ncnn2cc1Nc1ncc2c(n1)n(C1CCOCC1)c(=O)n2C [AZD7648] + O=C(c1cc(Cc2n[nH]c(=O)c3ccccc23)ccc1F)N1CCN(C(=O)C2CC2)CC1 [Olaparib] (first compound max 10 µM, 7x7, partner max 10 µM)	-0.0198	-0.0478	-0.0101	-0.0435	-0.0266	0.0289	0.0608	-0.003	-0.0814	-0.0398	-0.0488	-0.0562	-0.0497	-0.0275	0.0332	-0.0146	-0.0247	-0.0293	-0.0557	0.17
C[C@@H](c1ccc2nccn2c1)n1nnc2ncc(-c3cnn(C)c3)nc21 [Savolitinib] + Cc1c2c(nn1C)CSCc1cc(n(C)n1)CSc1cc(c3ccccc3c1)OCCCc1c(C(=O)O)n(C)c3c-2c(Cl)ccc13 [AZD5991] (first compound max 1 µM, 7x7, partner max 1 µM)	-0.0456	-0.0202	-0.048	-0.0446	-0.0359	0.007	-0.0128	-0.0026	-0.0611	-0.0354	-0.054	-0.0039	-0.0697	-0.021	0.0028	-0.0301	-0.0206	0.0471	-0.0586	0.38
N#Cc1cnc(Nc2cc(NC[C@H]3CNCCO3)c(C(F)(F)F)cn2)cn1 [SRA737] + O=c1[nH]cc(F)c(=O)[nH]1 [5-Fluorouracil] (first compound max 10 µM, 7x7, partner max 20 µM)	–	–	–	–	–	–	–	–	–	–	–	–	–	–	-0.0468	–	-0.0699	–	–	–
Cc1cc2ncnn2cc1Nc1ncc2c(n1)n(C1CCOCC1)c(=O)n2C [AZD7648] + COc1cc([C@@H]2c3cc4c(cc3[C@@H](O[C@@H]3O[C@@H]5CO[C@@H](C)O[C@H]5[C@H](O)[C@H]3O)[C@H]3COC(=O)[C@H]23)OCO4)cc(OC)c1O [Etoposide] (first compound max 10 µM, 7x7, partner max 10 µM)	–	–	–	–	–	–	–	–	–	–	–	–	–	–	0.0446	–	-0.0803	–	–	–
C[C@@H](c1ccc2nccn2c1)n1nnc2ncc(-c3cnn(C)c3)nc21 [Savolitinib] + CN(CC[C@H](CSC1=CC=CC=C1)NC2=C(C=C(C=C2)S(=O)(=O)NC(=O)C3=CC=C(C=C3)N4CCC(CC4)[C@H](C5=CC=CC=C5C6=CC=C(C=C6)Cl)O)S(=O)(=O)C(F)(F)F)CCO [AZD4320] (first compound max 1 µM, 7x7, partner max 1 µM)	-0.057	-0.0202	-0.001	0.0139	-0.036	-0.0352	-0.0701	-0.0467	-0.0639	-0.0196	-0.0527	-0.0206	-0.0439	-0.0313	–	0.0044	–	-0.0093	-0.0456	0.22
N#Cc1cnc(Nc2cc(NC[C@H]3CNCCO3)c(C(F)(F)F)cn2)cn1 [SRA737] + CCc1c2c(nc3ccc(O)cc13)-c1cc3c(c(=O)n1C2)COC(=O)[C@]3(O)CC [SN-38] (first compound max 10 µM, 7x7, partner max 0.3 µM)	–	–	–	–	–	–	–	–	–	–	–	–	–	–	-0.0189	–	0.129	–	–	–
CC(=O)c1c(C)c2cnc(Nc3ccc(N4CCNCC4)cn3)nc2n(C2CCCC2)c1=O [Palbociclib] + CN(CC[C@H](CSC1=CC=CC=C1)NC2=C(C=C(C=C2)S(=O)(=O)NC(=O)C3=CC=C(C=C3)N4CCC(CC4)[C@H](C5=CC=CC=C5C6=CC=C(C=C6)Cl)O)S(=O)(=O)C(F)(F)F)CCO [AZD4320] (first compound max 10 µM, 7x7, partner max 1 µM)	-0.0373	0.0351	-0.0225	-0.0863	0.038	0.0318	-0.0283	-0.0562	-0.0503	-0.0385	-0.0137	-0.082	-0.043	-0.0143	–	-0.0355	–	0.0142	-0.0294	0.202
N#Cc1cnc(Nc2cc(NC[C@H]3CNCCO3)c(C(F)(F)F)cn2)cn1 [SRA737] + C=CCn1c(=O)c2cnc(Nc3ccc(N4CCN(C)CC4)cc3)nc2n1-c1cccc(C(C)(C)O)n1 [AZD1775] (first compound max 10 µM, partner max 1 µM)	–	–	–	–	–	–	–	–	–	–	–	–	–	–	0.0762	–	0.0322	–	–	–
COc1nnc2ccc(N3CCC(c4ccc(OCCN5CCN(C)C(=O)[C@H]5C)cc4)CC3)nn12 [AZD5153] + CN(CC[C@H](CSC1=CC=CC=C1)NC2=C(C=C(C=C2)S(=O)(=O)NC(=O)C3=CC=C(C=C3)N4CCC(CC4)[C@H](C5=CC=CC=C5C6=CC=C(C=C6)Cl)O)S(=O)(=O)C(F)(F)F)CCO [AZD4320] (first compound max 1 µM, 7x7, partner max 1 µM)	0.122	0.0648	0.0356	0.0427	-0.0168	0.0779	-0.04	0.0233	0.0157	-0.0394	0.0204	0.0114	-0.0021	0.0973	–	0.0588	–	0.0427	-0.0206	0.328
